Laboratory results as given in patent US11845759B2, “Opioid compounds and uses thereof” (priority 2018, dated 2023).

Key:
[1] = Hydrolysis in HCl solutions; type: physicochemical; details: 6-OAc-Oxy
[2] = Hydrolysis in pH buffer/EtOH solutions; type: physicochemical; details: 6-OAc-Oxy
[3] = Hydrolysis in simulated gastric fluid at 37° C.; details: 6-OAc-Oxy in simulated Gastric fluid
[4] = biological target: T1, μ-opioid receptor (Homo sapiens (Human), UniProt P35372); assay: [35S]GTPγS μ-opioid receptor functional assay; type: biochemical
[5] = Hydrolysis in simulated intestinal fluid at 37° C.; details: for 6-OAc-Oxy (%): 6-OAc-Oxy in simulated intestinal fluid, 37° C.
[6] = Hydrolysis in human blood serum at 37° C.; details: for 6-OAc-Oxy (%): 6-OAc-Oxy in human blood serum, 37° C.
[7] = biological target: T1, μ-opioid receptor; type: binding
[8] = pH = 7 buffer (1:1 EtOH:H2O), 0 hrs
[9] = pH = 7 buffer (1:1 EtOH:H2O), 0.5 hrs
[10] = pH = 7 buffer (1:1 EtOH:H2O), 2 hrs
[11] = pH = 7 buffer (1:1 EtOH:H2O), 26 hrs
[12] = pH = 8 buffer (1:1 EtOH:H2O), 0 hrs
[13] = pH = 8 buffer (1:1 EtOH:H2O), 0.5 hrs
[14] = pH = 8 buffer (1:1 EtOH:H2O), 2 hrs
[15] = pH = 8 buffer (1:1 EtOH:H2O), 26 hrs
[16] = pH = 9 buffer (1:1 EtOH:H2O), 0 hrs
[17] = pH = 9 buffer (1:1 EtOH:H2O), 0.5 hrs
[18] = pH = 9 buffer (1:1 EtOH:H2O), 4 hrs
[19] = pH = 9 buffer (1:1 EtOH:H2O), 8 hrs
[20] = pH = 9 buffer (1:1 EtOH:H2O), 22 hrs
[21] = pH = 10 buffer (1:1 EtOH:H2O), 0 hrs
[22] = pH = 10 buffer (1:1 EtOH:H2O), 0.5 hrs
[23] = pH = 10 buffer (1:1 EtOH:H2O), 2 hrs
[24] = pH = 10 buffer (1:1 EtOH:H2O), 4 hrs
[25] = pH = 11 buffer (1:1 EtOH:H2O), 0 hrs
[26] = pH = 11 buffer (1:1 EtOH:H2O), 0.5 hrs

## COc1ccc2c3c1OC1C(OC(C)=O)=CC[C@@]4(O)[C@@H](C2)N(C)CC[C@]314 (some centres unmarked) [6-acetyl oxycodone]
[1]; 0.1N HCl solution, 0 hrs
  6-OAc-Oxy (%): 89.4%
[1]; 0.1N HCl solution, 0.5 hrs
  6-OAc-Oxy (%): 89.0%
  Oxy (%): 6.43%
[1]; 0.1N HCl solution, 2 hrs
  6-OAc-Oxy (%): 86.4%
  Oxy (%): 7.8%
[1]; 0.1N HCl solution, 8 hrs
  6-OAc-Oxy (%): 86.1%
  Oxy (%): 9.5%
[1]; 0.1N HCl solution, 24 hrs
  6-OAc-Oxy (%): 67.3%
  Oxy (%): 30.1%
[1]; 1N HCl solution, 0 hrs
  6-OAc-Oxy (%): 89.4%
[1]; 1N HCl solution, 0.5 hrs
  6-OAc-Oxy (%): 81.5%
  Oxy (%): 16.6%
[1]; 1N HCl solution, 2 hrs
  6-OAc-Oxy (%): 61.0%
  Oxy (%): 30.3%
[1]; 1N HCl solution, 4 hrs
  6-OAc-Oxy (%): 42.0%
  Oxy (%): 56.4%
[1]; 1N HCl solution, 8 hrs
  6-OAc-Oxy (%): 18.2%
  Oxy (%): 80.8%
[1]; 1N HCl solution, 24 hrs
  6-OAc-Oxy (%): 1.7%
  Oxy (%): 95.3%
[2]; [8]
  6-OAc-Oxy (%): 89.4%
  Oxy (%): 9.4%
[2]; [9]
  6-OAc-Oxy (%): 87.2%
  Oxy (%): 9.5%
[2]; [10]
  6-OAc-Oxy (%): 87.9%
  Oxy (%): 8.2%
[2]; [11]
  6-OAc-Oxy (%): 77.9%
  Oxy (%): 12.9%
[2]; [12]
  6-OAc-Oxy (%): 89.4%
  Oxy (%): 9.4%
[2]; [13]
  6-OAc-Oxy (%): 87.4%
  Oxy (%): 10.4%
[2]; [14]
  6-OAc-Oxy (%): 87.0%
  Oxy (%): 8.8%
[2]; [15]
  6-OAc-Oxy (%): 75.3%
  Oxy (%): 20.9%
[2]; [16]
  6-OAc-Oxy (%): 89.4%
  Oxy (%): 9.0%
[2]; [17]
  6-OAc-Oxy (%): 89.4%
  Oxy (%): 9.0%
[2]; [18]
  6-OAc-Oxy (%): 86.3%
  Oxy (%): 11.9%
[2]; [19]
  6-OAc-Oxy (%): 75.5%
  Oxy (%): 14.9%
[2]; [20]
  6-OAc-Oxy (%): 66.5%
  Oxy (%): 26.9%
[2]; [21]
  6-OAc-Oxy (%): 89.4%
  Oxy (%): 9.0%
[2]; [22]
  6-OAc-Oxy (%): 32.3%
  Oxy (%): 65.2%
[2]; [23]
  6-OAc-Oxy (%): 1.6%
  Oxy (%): 96.8%
[2]; [24]
  6-OAc-Oxy (%): 1.2%
  Oxy (%): 98.3%
[2]; [25]
  6-OAc-Oxy (%): 89.4%
  Oxy (%): 9.0%
[2]; [26]
  6-OAc-Oxy (%): 1.6%
  Oxy (%): 97.1%
[3]; 0 hrs
  6-OAc-Oxy (%): 89.4%
[3]; 2 hrs
  6-OAc-Oxy (%): 68.4%
[3]; 4 hrs
  6-OAc-Oxy (%): 66.1%
[3]; 8 hrs
  6-OAc-Oxy (%): 58.1%
[3]; 24 hrs
  6-OAc-Oxy (%): 46.2%
[4]
  EC50: 1690 nM
[4]; Conc. 3 μM, criteria ≥± 50%
  % Response Agonist: 62%
[5]; 0 hrs
  6-OAc-Oxy (%): 89.4%
[5]; 0.5 hrs
  6-OAc-Oxy (%): 39.8%
[5]; 2 hrs
  6-OAc-Oxy (%): 0.7%
[5]; 4 hrs
  6-OAc-Oxy (%): 0.0%
[5]; mixture in simulated intestinal fluid (37° C., pH 6.8, pancreatine)
  time to hydrolyze releasing oxycodone: less than 2 hours
[6]; 0 hrs
  6-OAc-Oxy (%): 89.4%
[6]; 0.083 hrs (5 min)
  6-OAc-Oxy (%): 0.65%
[6]; 0.5 hrs
  6-OAc-Oxy (%): 0.39%
[6]; human blood serum (37° C.)
  hydrolysis in human blood serum (in words): hydrolyzed quickly
[6]; human blood serum (37° C.), five minutes
  hydrolysis to oxycodone (in words): mostly hydrolyzed to oxycodone
[7]
  Ki: 41 nM
  Ki compared with that of oxycodone (in words): comparable
